Measurements: patent US20240277698A1, “METHODS OF USING ALDOSTERONE SYNTHASE INHIBITORS” (CINCOR PHARMA, INC., priority 2021, published 2024)
Like-named read-outs stand apart in the source and are kept apart here.

Legend:
[1] = Multiple-ascending dose (MAD) study, once daily for 10 days in healthy subjects: plasma pharmacokinetics; assay type: in vivo, human; conditions: for AUC extrap / CLss/F / RAUC (accumulation ratio AUC0-tau/AUC0-24h) / RCmax (accumulation ratio Cmax, D10/Cmax, D1) / AUC(0-t) / Cmax / AUC(0-inf) / AUC / Vd/F / half-life: mean (CV %); for AUC(0-t): read-out: AUC0-24 h; for AUC: read-out: AUC0-tau; for Vd/F: read-out: Vss/F; for half-life: read-out: t½ (converted)
Procedure: This was a randomized, double-blind study to assess the safety, tolerability, PK, and PD of multiple oral doses of (R)-compound 1 when administered to healthy adult subjects. The study consisted of 5 cohorts, with up to 12 subjects per cohort. Subjects were randomized in a 3:1 ratio to (R)-compound 1 or placebo once daily for 10 days as follows: • Cohort 1: 2.5 mg (R)-compound 1 or matching placebo (low salt diet in 9 subjects receiving (R)-compound 1 and 3 subjects receiving placebo); • Cohort 2: 5.0 mg (R)-compound 1 or matching placebo (low salt diet in 9 subjects receiving (R)-compound 1 and 3 subjects receiving placebo); • Cohort 3: 1.5 mg (R)-compound 1 or matching placebo (normal salt diet in 9 subjects receiving (R)-compound 1 and 3 subjects receiving placebo); • Cohort 4: 2.5 mg (R)-compound 1 or matching placebo (normal salt diet in 6 subjects receiving (R)-compound 1 and 2 subjects receiving placebo); and • Cohort 5: 0.5 mg (R)-compound 1 or matching placebo (normal salt diet in 9 subjects receiving (R)-compound 1 and 3 subjects receiving placebo).
For each subject, the study consisted of: • A screening period of up to 28 days; • A 5-day inpatient run-in period during which subjects adhered to a controlled, standardized diet and underwent baseline PD assessments; • A 15-day inpatient treatment period, during which subjects received (R)-compound 1 or placebo once daily for 10 days while adhering to a controlled, standardized diet, followed by PK and PD sampling over an additional 5 days; and • A follow-up visit 3 days (1 day) after discharge from the clinical unit. • A cortisol stimulation test (Cohorts 1 and 2 only) and standing aldosterone assessment (all cohorts) were performed on Days 1 and 10. Serial blood samples for PK and PD were obtained prior to and at specified time points over 24 hours after dosing on Day 1 as well as prior to and at specified time points over 120 hours after dosing on Day 10. In addition, blood samples for PK were collected prior to dosing on Days 8 and 9. Urine for PK and PD measurements was collected over 24 hours starting just prior to dosing on Day 1 as well as over 120 hours starting just prior to dosing on Day 10.
Study subjects were dosed with (R)-compound 1 (oral drinking solution) or matching placebo. The doses of (R)-compound 1 administered were 2.5 and 5.0 mg with a low salt diet and 1.5, 2.5, and 0.5 mg with a normal salt diet.
(only for (R)-compound 1).

[2] = Renal impairment study, single 10 mg dose: safety; assay type: in vivo
Excerpt: One subject with end stage disease experienced an unrelated SAE of metabolic encephalopathy and a moderate unrelated adverse event (AE) of tremor. One control subject experienced a mild AE of diarrhea, which was considered to be related to study drug by the Investigator. […] It is not necessary to dose adjust (R)-compound 1 for patients with renal impairment.
Overall, there were no deaths, 1 (3.0%) subject experienced an SAE, and no subjects discontinued due to a TEAE. Overall, 2 (6.1%) subjects experienced a total of 3 TEAEs: 1 (10.0%) subject in the control group experienced a TEAE of mild diarrhea following administration of (R)-compound 1 that was considered related to the study drug; no subjects experienced a TEAE in the (R)-moderate to severe renal impairment group; and 1 (8.3%) subject in the kidney failure group experienced 2 TEAEs of moderate tremor and severe metabolic encephalopathy (recorded as an SAE) following administration of (R)-compound 1 that were considered not related to the study drug. The SAE was thought to be secondary to the concomitant medications. As such, there was no apparent increase in incidence or severity of AEs with decreased renal function. There were no AEs, trends, or clinically meaningful changes in laboratory parameters. There were no AEs or clinically significant changes observed in vital signs, physical examinations, or 12-lead ECGs.

[3] = 0.5 mg QD, normal salt diet, Day 10
[4] = 1.5 mg QD, normal salt diet, Day 10
[5] = 2.5 mg QD, low salt diet, Day 10
[6] = 2.5 mg QD, normal salt diet, Day 10
[7] = 5.0 mg QD, low salt diet, Day 10
[8] = human, plasma, oral, 0.5 mg, 0.5 mg QD, normal salt diet, Day 10
[9] = human, plasma, oral, 1.5 mg, 1.5 mg QD, normal salt diet, Day 10
[10] = human, plasma, oral, 2.5 mg, 2.5 mg QD, low salt diet, Day 10
[11] = human, plasma, oral, 2.5 mg, 2.5 mg QD, normal salt diet, Day 10
[12] = human, plasma, oral, 5 mg, 5.0 mg QD, low salt diet, Day 10

CCC(=O)N[C@@H]1CCCc2c(-c3ccc4c(c3)CCC(=O)N4C)cncc21 [(R)-Compound 1, (R)—N-(4-(1-methyl-2-oxo-1,2,3,4-tetrahydroquinolin-6-yl)-5,6,7,8-tetrahydroisoquinolin-8-yl)propionamide]
AUC extrap [1, 3]: 6.325 (42.2) % | CLss/F [1, 3]: 3.421 (29.4) L/h | RAUC (accumulation ratio AUC0-tau/AUC0-24h) ([1]; 0.5 mg QD, normal salt diet): 1.960 (13.9) | RCmax (accumulation ratio Cmax, D10/Cmax, D1) ([1]; 0.5 mg QD, normal salt diet): 1.827 (14.2) | AUC extrap [1, 4]: 6.106 (65.9) % | CLss/F [1, 4]: 3.350 (27.5) L/h | RAUC (accumulation ratio AUC0-tau/AUC0-24h) ([1]; 1.5 mg QD, normal salt diet): 2.307 (13.8) | RCmax (accumulation ratio Cmax, D10/Cmax, D1) ([1]; 1.5 mg QD, normal salt diet): 2.132 (11.2) | AUC extrap [1, 5]: 4.519 (45.4) % | CLss/F [1, 5]: 3.277 (16.1) L/h | RAUC (accumulation ratio AUC0-tau/AUC0-24h) ([1]; 2.5 mg QD, low salt diet): 2.147 (7.4) | RCmax (accumulation ratio Cmax, D10/Cmax, D1) ([1]; 2.5 mg QD, low salt diet): 1.965 (15.1) | AUC extrap [1, 6]: 3.832 (85.6) % | CLss/F [1, 6]: 4.315 (36.9) L/h | RAUC (accumulation ratio AUC0-tau/AUC0-24h) ([1]; 2.5 mg QD, normal salt diet): 1.994 (22.3) | RCmax (accumulation ratio Cmax, D10/Cmax, D1) ([1]; 2.5 mg QD, normal salt diet): 1.706 (34.1) | AUC extrap [1, 7]: 5.397 (52.6) % | CLss/F [1, 7]: 3.207 (26.3) L/h | RAUC (accumulation ratio AUC0-tau/AUC0-24h) ([1]; 5.0 mg QD, low salt diet): 2.507 (10.2) | RCmax (accumulation ratio Cmax, D10/Cmax, D1) ([1]; 5.0 mg QD, low salt diet): 2.424 (13.6) | AUC(0-t) ([1]; human, plasma, oral, 0.5 mg, 0.5 mg QD, normal salt diet, Day 1): 79.5 ng·h/mL | Cmax ([1]; human, plasma, oral, 0.5 mg, 0.5 mg QD, normal salt diet, Day 1, read-out: Cmax, D 1): 5.36 ng/mL | Tmax ([1]; human, plasma, oral, 0.5 mg, 0.5 mg QD, normal salt diet, Day 1, median (min, max), read-out: Tmax, D 1): 2 h | AUC(0-inf) [1, 8]: 351 ng·h/mL | AUC [1, 8]: 155 ng·h/mL | Cmax ([1]; human, plasma, oral, 0.5 mg, 0.5 mg QD, normal salt diet, Day 10, read-out: Cmax, D 10): 9.72 ng/mL | Vd/F [1, 8]: 152 L | Tmax ([1]; human, plasma, oral, 0.5 mg, 0.5 mg QD, normal salt diet, Day 10, median (min, max), read-out: Tmax, D 10): 2 h | AUC(0-t) ([1]; human, plasma, oral, 1.5 mg, 1.5 mg QD, normal salt diet, Day 1): 205 ng·h/mL | Tmax ([1]; human, plasma, oral, 1.5 mg, 1.5 mg QD, normal salt diet, Day 1, median (min, max), read-out: Tmax, D 1): 2.5 h | AUC(0-inf) [1, 9]: 1110 ng·h/mL | AUC [1, 9]: 480 ng·h/mL | Vd/F [1, 9]: 137 L | Tmax ([1]; human, plasma, oral, 1.5 mg, 1.5 mg QD, normal salt diet, Day 10, median (min, max), read-out: Tmax, D 10): 2.5 h | AUC(0-t) ([1]; human, plasma, oral, 2.5 mg, 2.5 mg QD, low salt diet, Day 1): 366 ng·h/mL | Tmax ([1]; human, plasma, oral, 2.5 mg, 2.5 mg QD, low salt diet, Day 1, median (min, max), read-out: Tmax, D 1): 3 h | AUC(0-inf) [1, 10]: 1490 ng·h/mL | AUC [1, 10]: 783 ng·h/mL | Cmax ([1]; human, plasma, oral, 2.5 mg, 2.5 mg QD, low salt diet, Day 10, read-out: Cmax, D 10): 54 ng/mL | Vd/F [1, 10]: 135 L | Tmax ([1]; human, plasma, oral, 2.5 mg, 2.5 mg QD, low salt diet, Day 10, median (min, max), read-out: Tmax, D 10): 2 h | AUC(0-t) ([1]; human, plasma, oral, 2.5 mg, 2.5 mg QD, normal salt diet, Day 1): 344 ng·h/mL | Tmax ([1]; human, plasma, oral, 2.5 mg, 2.5 mg QD, normal salt diet, Day 1, median (min, max), read-out: Tmax, D 1): 3 h | AUC(0-inf) [1, 11]: 1460 ng·h/mL | AUC [1, 11]: 677 ng·h/mL | Vd/F [1, 11]: 150 L | Tmax ([1]; human, plasma, oral, 2.5 mg, 2.5 mg QD, normal salt diet, Day 10, median (min, max), read-out: Tmax, D 10): 3 h | AUC(0-t) ([1]; human, plasma, oral, 5 mg, 5.0 mg QD, low salt diet, Day 1): 658 ng·h/mL | AUC(0-inf) [1, 12]: 3480 ng·h/mL | AUC [1, 12]: 1660 ng·h/mL | Vd/F [1, 12]: 134 L | Tmax ([1]; human, plasma, oral, 5 mg, 5.0 mg QD, low salt diet, Day 10, median (min, max), read-out: Tmax, D 10): 3 h | Tmax ([1]; human, plasma, oral, 0.5 to 5 mg QD, read-out: median Tmax, range across treatment groups): 0.98 to 4 h | half-life ([1]; human, plasma, oral, 1.5 mg QD, normal salt diet, Day 10): 29.9 h | half-life ([1]; human, plasma, oral, 2.5 mg QD, normal salt diet, Day 10): 25.5 h | half-life ([1]; human, plasma, oral, 5.0 mg QD, low salt diet, Day 10): 29.4 h | half-life at 10 days ([1]; human, plasma, oral, approximately, read-out: mean t½, range): 26 to 31 h | time after dosing within which peak concentrations typically observed ([1]; oral administration): ≤ 4 h | subjects experiencing a TEAE (mild diarrhea, related) ([2]; control group): 1 (10.0%) | subjects experiencing TEAEs (moderate tremor, severe metabolic encephalopathy, not related) ([2]; kidney failure group): 1 (8.3%) | subjects experiencing a TEAE ([2]; moderate to severe renal impairment group): no subjects | subjects experiencing TEAEs ([2]; overall, single 10 mg dose): 2 (6.1%) | subjects experiencing an SAE ([2]; overall, single 10 mg dose): 1 (3.0%) | tolerability ([2]; single 10 mg dose, varying degrees of renal function): well tolerated
